Results on three molecules are retold here after paper PMC3210919 (Biochemistry, 2011).

The subject of data set [1] is PC from B. Thermodenitrificans. The following applies: read-out: apparent Km for HCO3^−; presence of acetyl-CoA; ref [32]; cited from earlier work.
Data set [2] relates to wild-type RePC (pyruvate carboxylase from R. etli). Kind of data set: Pyruvate carboxylation activity, malate dehydrogenase coupled assay. In kind it is biochemical, Rhizobium etli.
A further data set addresses sheep kidney PC. The following applies: noncompetitive with respect to MgATP, full forward reaction; ref [22]; cited from earlier work.
For a further data set, the target named is wild-type RePC (Rhizobium etli, UniProt Q2K340). In kind it is biochemical.
Substrate in data set [3]: CC(=O)C(=O)O
Kind of data set: purified protein, by the assay type. Conditions: other: (−) acetyl-CoA, 15 mM HCO3^−.

Where [4] appears, read: labelled substrate varied, others saturating, pH 7.5, 25° C, 0.25 mM acetyl-CoA.
Setting [5] is: extrapolated to saturating phosphonoacetate.

For `O=C(O)O` [HCO3^−], the Km in data set [1] was 16 mM. Moreover, in data set [2] (setting [4]), the Michaelis-Menten constant (Km) was 10.8 ± 0.4 mM and the kcat was determined as 11.7 ± 0.333 s⁻¹.

`O=C(O)CP(=O)(O)O` [phosphonoacetate]: the inhibitory constant (Ki) on sheep kidney PC is 500 µM. In addition, on wild-type RePC, the “fold lower Kii for MgADP phosphorylation than for pyruvate carboxylation” value is recorded as 890 fold; the “fold lower Kis for MgADP phosphorylation than for pyruvate carboxylation” value was 100 fold; the “type of inhibition with respect to carbamoyl phosphate” value is recorded as “hyperbolic, noncompetitive inhibition”. On wild-type RePC (setting [5]), the “V/Km at saturating phosphonoacetate, % of the uninhibited reaction” value is reported as 1.5% and the “Vmax at saturating phosphonoacetate, % of the uninhibited reaction” value is recorded as 1%. Moreover, the “Kii (intercept inhibition constant)” value on wild-type RePC (hyperbolic noncompetitive with respect to carbamoyl phosphate, eqn (10)) came to 0.021 ± 0.001 mM. Further, the “type of inhibition with respect to MgATP” value in data set [2] is reported as “noncompetitive”. In data set [2] (linear noncompetitive with respect to MgATP, eqn (9)), the “Kii (intercept inhibition constant)” value is 18 ± 7 mM.

B1: wild-type RePC (Rhizobium etli CFN 42) (protein)
chain: MPISKILVANRSEIAIRVFRAANELGIKTVAIWAEEDKLALHRFKADESYQVGRGPHLARDLGPIESYLSIDEVIRVAKLSGADAIHPGYGLLSESPEFVDACNKAGIIFIGPKADTMRQLGNKVAARNLAISVGVPVVPATEPLPDDMAEVAKMAAAIGYPVMLKASWGGGGRGMRVIRSEADLAKEVTEAKREAMAAFGKDEVYLEKLVERARHVESQILGDTHGNVVHLFERDCSVQRRNQKVVERAPAPYLSEAQRQELAAYSLKIAGATNYIGAGTVEYLMDADTGKFYFIEVNPRIQVEHTVTEVVTGIDIVKAQIHILDGAAIGTPQSGVPNQEDIRLNGHALQCRVTTEDPEHNFIPDYGRITAYRSASGFGIRLDGGTSYSGAIITRYYDPLLVKVTAWAPNPLEAISRMDRALREFRIRGVATNLTFLEAIIGHPKFRDNSYTTRFIDTTPELFQQVKRQDRATKLLTYLADVTVNGHPEAKDRPKPLENAARPVVPYANGNGVKDGTKQLLDTLGPKKFGEWMRNEKRVLLTDTTMRDGHQSLLATRMRTYDIARIAGTYSHALPNLLSLECWGGATFDVSMRFLTEDPWERLALIREGAPNLLLQMLLRGANGVGYTNYPDNVVKYFVRQAAKGGIDLFRVFDCLNWVENMRVSMDAIAEENKLCEAAICYTGDILNSARPKYDLKYYTNLAVELEKAGAHIIAVKDMAGLLKPAAAKVLFKALREATGLPIHFHTHDTSGIAAATVLAAVEAGVDAVDAAMDALSGNTSQPCLGSIVEALSGSERDPGLDPAWIRRISFYWEAVRNQYAAFESDLKGPASEVYLHEMPGGQFTNLKEQARSLGLETRWHQVAQAYADANQMFGDIVKVTPSSKVVGDMALMMVSQDLTVADVVSPDREVSFPESVVSMLKGDLGQPPSGWPEALQKKALKGEKPYTVRPGSLLKEADLDAERKVIEKKLEREVSDFEFASYLMYPKVFTDFALASDTYGPVSVLPTPAYFYGLADGEELFADIEKGKTLVIVNQAVSATDSQGMVTVFFELNGQPRRIKVPDRAHGATGAAVRRKAEPGNAAHVGAPMPGVISRVFVSSGQAVNAGDVLVSIEAMKMETAIHAEKDGTIAEVLVKAGDQIDAKDLLAVYGG
As for B1, in data set [3], the Km worked out at 0.013 ± 0.002 mM and the kcat turned out to be 0.0253 ± 0.0005 s⁻¹.

In general, Km refers to the concentration of substrate that gives half-maximal velocity. What is called kcat is the maximal rate divided by the concentration of active sites. As usually defined, the Ki is a dissociation constant, usually derived from enzyme kinetics or from competition with a known ligand.
